In one series the target is T1, PRC2 (EZH2-Y641F) (Homo sapiens, UniProt Q15910, Y641F).
T1 construct: purchased Active motif
Description: In vitro methyltransferase assay. It counts as biochemical. How it is done: Recombinant PRC2 (EZH2-Y641F) was purchased from Active motif, S-adenosyl-methionin chloride (SAM) and Poly-L-lysine (PLL) were purchased from Sigma-Aldrich, H3(1-50)K27me1 peptide was purchased from Cisbio. LANCEUltra (Perkinelmer) system was used for detection. For the enzyme activity test, tested compounds are 1:3 diluted for 8-points, and added into each well, then 100 ng enzyme is added. And then the buffer [20 mM Tris pH8.5, 2 mM MgCl2, 0.01% Tween-20, 1 mM TCEP] containing […]/250 nM H3 (1-50)K27me1 premixtures are added. After 3 hours enzyme reaction at RT, the premixed detection buffer (PLL, Europium antibody and Ulight) is added, and react for 1 h at RT, then read fluorescence on Tecan infinite pro. IC50s are counted by XLfit using a four-parameter model.

A further series relates to SU-DHL-10. The series is described as follows: Cell proliferation assay, SU-DHL-10. The format is cell-based. How it is done:
(§1) Cell lines Pfeiffer (CRL-2632), suDHL-6 (CRL-2959) and suDHL-10 (CRL-2963) were obtained from ATCC. All cell lines were cultured in RPMI-1640 medium (Gibco) plus 10% FBS (Gibco). Cells are harvested by centrifuge and densities are determined using a CounterStar cell counter. Appropriate number of cells are plated in a96-well culture plate and pre-incubate overnight. Tested compounds are 1:3 diluted for 8-points and added into each well. After 6 days' growth, cell counting kit-8 (Dojindo) is used to detect cell viability and read on Tecan infinite pro. IC50s are counted by XLfit using a four-parameter model.

The subject of a further series is Pfeiffer cells. Description: Cell proliferation assay, Pfeiffer. The format is cell-based. Here is the method:
as §1

Another series relates to SU-DHL-6. Description: Cell proliferation assay, SU-DHL-6. The format is cell-based. How it is done:
as §1

The nature of series [1]: Dynamic solubility experiment. It counts as physicochemical. Particulars: for solubility at 24 h: thermodynamic from solid, room temperature. An excerpt:
The free base samples and the two crystal forms were plotted separately in the experiment.

Series [2] can be described thus: Polymorph screening by mixing shaking. Particulars: mixed crystal forms I to III shaken 1 day at room temperature in different solvents. It counts as physicochemical. How it is done:
Mixing shaking test was conducted using different solvent systems. 2 mg of each crystal form of crystal form I to crystal form III was weighed into a glass vial to obtain the mixed crystals, the appropriate amount of organic reagents in Table 6 were added, screwed the cap, and a sealing film was used to prevent the solvent from volatilizing, shaken for 1 days at room temperature and 25 r/min, taken out and centrifuged at 10000 r/min for 10 min at 4° C., the supernatant was poured, and the solid was placed in a oven at 50° C. for drying, the resulting solid was collected and sent for XRPD test.

≈ marks a conversion by molar mass, not a printed value. Like-named read-outs stand apart in the source and are kept apart here.

T1 sequence (Q15910 whole entry Y641F): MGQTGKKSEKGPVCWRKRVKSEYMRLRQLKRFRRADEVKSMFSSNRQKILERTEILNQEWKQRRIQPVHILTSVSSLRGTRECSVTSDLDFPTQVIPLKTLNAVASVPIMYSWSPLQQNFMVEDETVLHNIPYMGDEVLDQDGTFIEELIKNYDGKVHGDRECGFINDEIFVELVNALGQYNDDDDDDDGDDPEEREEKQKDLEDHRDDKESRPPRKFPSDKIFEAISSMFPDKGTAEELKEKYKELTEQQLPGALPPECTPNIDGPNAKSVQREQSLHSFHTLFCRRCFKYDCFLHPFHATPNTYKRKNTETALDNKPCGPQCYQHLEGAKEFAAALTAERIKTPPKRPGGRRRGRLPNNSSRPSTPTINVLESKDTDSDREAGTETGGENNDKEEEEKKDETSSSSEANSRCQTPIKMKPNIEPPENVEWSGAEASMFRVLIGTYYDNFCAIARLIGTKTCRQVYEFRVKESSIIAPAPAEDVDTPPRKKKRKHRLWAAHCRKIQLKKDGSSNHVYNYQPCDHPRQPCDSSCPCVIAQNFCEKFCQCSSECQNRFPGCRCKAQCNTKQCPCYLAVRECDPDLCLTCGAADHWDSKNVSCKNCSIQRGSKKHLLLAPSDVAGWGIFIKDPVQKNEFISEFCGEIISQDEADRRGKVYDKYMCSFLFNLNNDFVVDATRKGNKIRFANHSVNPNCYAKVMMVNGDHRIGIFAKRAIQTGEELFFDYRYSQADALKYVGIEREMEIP
T1 sequence (O75530 whole entry partner): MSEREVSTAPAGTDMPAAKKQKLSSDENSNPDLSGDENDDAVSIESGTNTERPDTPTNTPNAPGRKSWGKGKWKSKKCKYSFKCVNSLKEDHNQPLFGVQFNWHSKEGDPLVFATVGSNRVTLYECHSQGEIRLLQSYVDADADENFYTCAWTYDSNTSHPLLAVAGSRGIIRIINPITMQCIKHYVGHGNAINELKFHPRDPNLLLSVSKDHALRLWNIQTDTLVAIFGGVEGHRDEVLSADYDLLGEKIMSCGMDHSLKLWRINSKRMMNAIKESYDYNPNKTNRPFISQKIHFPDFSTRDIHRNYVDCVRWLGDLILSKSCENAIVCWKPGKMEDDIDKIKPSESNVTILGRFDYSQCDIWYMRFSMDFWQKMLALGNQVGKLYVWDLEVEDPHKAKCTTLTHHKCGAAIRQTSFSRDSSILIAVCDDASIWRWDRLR
T1 sequence (Q15022 whole entry partner): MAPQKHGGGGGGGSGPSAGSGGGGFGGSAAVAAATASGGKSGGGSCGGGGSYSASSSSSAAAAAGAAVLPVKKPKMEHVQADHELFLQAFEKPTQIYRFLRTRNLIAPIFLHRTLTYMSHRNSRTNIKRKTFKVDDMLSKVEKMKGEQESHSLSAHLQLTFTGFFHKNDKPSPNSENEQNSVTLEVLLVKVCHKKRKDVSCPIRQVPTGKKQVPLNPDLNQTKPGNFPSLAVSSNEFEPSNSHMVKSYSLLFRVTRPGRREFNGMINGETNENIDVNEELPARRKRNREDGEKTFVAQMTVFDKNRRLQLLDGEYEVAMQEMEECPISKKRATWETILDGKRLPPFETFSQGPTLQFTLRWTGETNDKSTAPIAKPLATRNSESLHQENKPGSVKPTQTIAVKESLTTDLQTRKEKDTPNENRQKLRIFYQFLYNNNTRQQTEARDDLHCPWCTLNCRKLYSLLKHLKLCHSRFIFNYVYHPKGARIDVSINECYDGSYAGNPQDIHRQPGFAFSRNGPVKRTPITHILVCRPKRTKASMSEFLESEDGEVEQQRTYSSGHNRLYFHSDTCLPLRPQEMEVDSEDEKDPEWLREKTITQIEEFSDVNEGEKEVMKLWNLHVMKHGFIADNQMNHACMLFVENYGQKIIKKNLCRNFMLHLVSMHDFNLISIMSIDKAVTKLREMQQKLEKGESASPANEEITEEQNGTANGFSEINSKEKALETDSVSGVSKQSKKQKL
T1 sequence (Q09028 whole entry partner): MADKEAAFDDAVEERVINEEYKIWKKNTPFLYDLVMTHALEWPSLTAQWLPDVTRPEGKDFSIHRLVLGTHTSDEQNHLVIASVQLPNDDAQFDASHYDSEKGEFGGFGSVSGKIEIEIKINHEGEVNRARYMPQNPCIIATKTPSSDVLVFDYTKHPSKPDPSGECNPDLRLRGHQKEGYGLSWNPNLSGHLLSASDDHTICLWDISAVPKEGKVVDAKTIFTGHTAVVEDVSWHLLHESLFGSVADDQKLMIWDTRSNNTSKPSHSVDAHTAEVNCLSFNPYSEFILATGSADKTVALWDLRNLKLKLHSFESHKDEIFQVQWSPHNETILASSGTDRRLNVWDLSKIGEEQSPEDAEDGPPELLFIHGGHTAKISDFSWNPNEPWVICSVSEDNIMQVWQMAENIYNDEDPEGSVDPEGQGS
T1 sequence (Q6ZN18 whole entry partner): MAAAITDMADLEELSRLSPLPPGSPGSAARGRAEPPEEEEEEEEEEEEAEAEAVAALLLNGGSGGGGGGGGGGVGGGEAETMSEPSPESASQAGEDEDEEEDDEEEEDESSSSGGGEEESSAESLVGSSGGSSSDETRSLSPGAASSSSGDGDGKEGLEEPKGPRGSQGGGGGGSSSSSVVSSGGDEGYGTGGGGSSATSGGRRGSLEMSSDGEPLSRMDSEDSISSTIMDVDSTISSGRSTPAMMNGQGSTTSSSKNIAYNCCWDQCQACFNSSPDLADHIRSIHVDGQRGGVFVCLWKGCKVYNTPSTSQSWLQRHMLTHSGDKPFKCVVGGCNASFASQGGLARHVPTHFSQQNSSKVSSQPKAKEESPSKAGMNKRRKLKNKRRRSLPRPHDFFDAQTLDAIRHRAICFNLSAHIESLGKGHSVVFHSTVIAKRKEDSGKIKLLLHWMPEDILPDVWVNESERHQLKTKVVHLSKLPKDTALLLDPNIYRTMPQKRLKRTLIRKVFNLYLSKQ

With `CCc1c(C(=O)NCc2c(C)cc(C)[nH]c2=O)cc2c(cnn2C)c1N(CC)[C@H]1CC[C@H](N2CC(OC)C2)CC1` [Free base, N-((4,6-dimethyl-2-oxo-1,2-dihydropyridin-3-yl)methyl)-5-ethyl-4-(ethyl((1S,4S)-4-(3-methoxyazetidin-1-yl)cyclohexyl)amino)-1-methyl-1H-indazole-6-carboxamide], the IC50 (usually the concentration that gives 50% inhibition) against PRC2 (EZH2-Y641F) was 12 nM; in the series on Pfeiffer cells (Homo sapiens, Pfeiffer, 144 h, 6 days' growth, cell counting kit-8), 7 nM. Moreover, the “inhibitory activity against EZH2 Y641F enzyme” value was “high inhibitory activity” on PRC2 (EZH2-Y641F) and “high inhibitory activities” against PRC2 (EZH2-Y641F) (listed as compound of formula X). Moreover, the “inhibitory activity against SU-DHL-10 cells” value in the series on SU-DHL-10 was “high inhibitory activities”. The “inhibitory activity against cells” value in the series with Pfeiffer cells (Table 10) is “high inhibitory activity”. The “inhibitory activity against SU-DHL-6 cells” value in the series on SU-DHL-6 is recorded as “high inhibitory activities”. In addition, the “Final pH” value in series [1] (0.1M HCl) came to 4.56; in series [1] (H2O), 8.32; in series [1] (pH 4.5 buffer), 5.84; in series [1] (pH 6.8 buffer), 6.74. The Phenomenon result in series [1] (0.1M HCl) is “clear”; in series [1] (H2O), “turbid”; in series [1] (pH 4.5 buffer), “turbid”; in series [1] (pH 6.8 buffer), “turbid”. Also, the solubility (usually the concentration that dissolves in the medium under given conditions) at 24 h was 3590 µg/mL (≈ 6540 µM) in series [1] (aqueous buffer, pH 4.5 buffer); 840 µg/mL (≈ 1530 µM) in series [1] (aqueous buffer, pH 6.8 buffer); more than 50000 µg/mL in series [1] (simulated gastric fluid, 0.1M HCl); 60 µg/mL (≈ 109 µM) in series [1] (water, H2O).

For `CCc1c(C(=O)NCc2c(C)cc(C)[nH]c2=O)cc2c(cnn2C)c1N(CC)[C@H]1CC[C@H](N2CC(OC)C2)CC1` [Crystal form V], the “stability of crystal form” value in series [2] is given as “stable crystal form”.

(Values after patent publication US20210188813A1, “EZH2 INHIBITOR AND PHARMACEUTICALLY ACCEPTABLE SALTS AND POLYMORPHIC SUBSTANCES THEREOF, AND APPLICATION OF EZH2 INHIBITOR” (SHANGHAI HAIYAN PHARMACEUTICAL TECHNOLOGY CO., LTD., priority 2018, published 2021).)
